Measured values: patent publication US20220354834A1, “METHODS AND MATERIALS FOR TREATING NEUROTOXICITY” (Cavion, Inc., priority 2019, published 2022)

Legend:
[1] = In vivo anti-tumor (interference) study: body weight; parameters: species or system athymic nude mouse; conditions: 1 mg/kg BTZ alone iv twice weekly, 28 days
From the text: (§1) Care and husbandry of mice complied with USDA (U.S. Department of Agriculture) Animal Welfare Act and START IACUC (Institutional Animal Care and Use Committee) regulations. The protocol was reviewed and approved by START IACUC. Mice were individually housed in Sealsafe® Plus ventilated cages (Techniplast, West Chester, Pa., USA) and fed with Teklad 2919 (Envigo, Somerset, N.J., USA), irradiated, 19% protein, 9% fat and 4% fiber mouse chow. Mice were maintained under controlled environmental conditions (22+/−2° C. temperature, 55+/−10% relative humidity and 12-hour light/dark cycle (7 a.m.-7 p.m.).
(§2) South Texas Accelerated Research Therapeutics (START) (San Antonio, Tex., USA) conducted this study. […] The 30 mg/kg dose was tolerated in preclinical safety studies and anticipated to result in exposures in excess of the therapeutic range for 28 days. Body weight, TV and animal observations were collected twice per week to day 18 (termination) for vehicle control mice and twice per week to day 28 (termination) for each of the other 3 groups. Mean±SD body weight and TV were analyzed with Kruskal-Wallis and Dunn multiple comparison test at day 18 and with Mann Whitney test at day 28 with statistical significance at p<0.05.

[2] = tested on: sciatic nerves (BTZ-induced CIPN); assay: CIPN-reversal study: sciatic nerve conduction velocity; format: in vivo, Wistar rat
Description: (§3) Wistar female rats (n=52) (Envigo, Correzzano, Italy) at 10-11 weeks of age were utilized. The study was divided into 2 phases of 4 weeks each. […] Body weight was measured periodically during phase 1 from baseline (day 1) to day 28. At baseline and conclusion of phase 1 (day 28), nerve conduction velocity (NCV) was performed on caudal and sciatic nerves and Dynamic Aesthesiometer Test (DAT) measured mechanical threshold (MT) of the hind paw. […] Body weight was measured periodically from baseline (day 28) to day 56 (termination). NCV and MT were measured in all 4 groups at baseline and on day 35 and 56. […] At termination, sciatic nerves were obtained for β-tubulin polymerization and skin samples were procured for intraepidermal nerve fiber (IENF) density and histopathology.
(§4) NCV (meters/second) was obtained from caudal and sciatic nerves with an electromyography tool (Myto 2, ABN Neuro, Firenze, Italy). Caudal NCV was measured by placement of recording needle electrodes distally in the tail with stimulating needle electrodes 5 cm and 10 cm proximal to recording point. Peak latencies of potentials recorded at the 2 sites after nerve stimulation were determined and NCV was calculated. Sciatic NCV was determined by placement of needle recording electrodes near ankle bone and stimulating electrodes close to thigh. Peak latencies were recorded similar to caudal nerve and NCV was calculated. NCV was performed under standard conditions in a temperature-controlled facility (22±2° C.) and rats were under isoflurane anesthesia with monitoring of vital signs.

β-tubulin = β-tubulin polymerization assay in sciatic nerve; format: in vivo, Wistar rat; conditions: week 8
Description: as §3
(§5) At day 56, animals were euthanized by CO2 inhalation and tissue samples were procured from 4 rats per group. Right sciatic nerve was frozen in liquid nitrogen for β-tubulin polymerization assay and plantar glabrous skin samples were collected for IENF density.
Protein extracts from sciatic nerves were processed similar to the proteasome assay except for lysis buffer that contained freshly added protease and […] (10 mM sodium orthovanadate, 4 mM phenylmethylsulfonyl fluoride, 1% aprotinin and 20 mM sodium pyrophosphate). Protein extracts were centrifuged (14000 rpm for 10 minutes at 4° C.) to separate soluble (S) free tubulin fractions from polymerized (P) fractions. Supernatants were collected and pellets of polymerized tubulin were resuspended by sonication for 20 seconds in a volume of lysis buffer supplemented with 0.5% sodium deoxycholate (equivalent to S fraction). Protein aliquots (10 μg) were placed onto 13% SDS-PAGE and, after electrophoresis, were transferred to nitrocellulose filters. Immunoblotting analysis was performed using mouse anti-β-tubulin antibody. After incubation with primary antibody, membrane was washed and incubated with horseradish peroxidase conjugated to […] (Perkin Elmer Italia SPA, Monza, Italy). The ECL chemiluminescence system (Amersham GE Healthcare Europe GmbH, Milano, Italy) was used for detection. Band intensity was quantified with Gel Logic 100 Image System (Eastman Kodak, Rochester, N.Y., USA). Final mean values were obtained from triplicate experiments and data were expressed as percentage of P/P+S in treated rats compared to controls.

[3] = tested on: caudal nerves (BTZ-induced CIPN); assay: CIPN-reversal study: caudal nerve conduction velocity; format: in vivo, Wistar rat
Description: as §3, §4

[4] = tested on: intraepidermal nerve fibers (BTZ-induced CIPN); assay: IENF density and histopathology of plantar glabrous skin; format: in vivo, Wistar rat
Description: as §3, §5
Plantar glabrous skin samples (5 mm) from hind paws were fixed in 2% PLP (paraformaldehyde-lysine-sodium periodate) for 24 hours at 4° C. and cryoprotected overnight. Samples were serially cut with a cryostat to yield 20 μm sections. Three sections from each footpad were randomly selected and immunostained with rabbit polyclonal anti-protein gene product 9.5 (PGP 9.5; GeneTex, Irvine, Calif., USA) in combination with biotinylated anti-rabbit IgG and Vector SG substrate kit peroxidase (Vector Laboratories, Burlingame, Calif.) using a free-floating protocol. A blinded observer counted total number of immune-positive IENF in each section under light microscopy at high magnification with a microscope video camera. Individual fibers were counted that crossed dermal-epidermal interface. Secondary branches within epidermis were excluded. Length of epidermis was measured to generate linear density of IENF/millimeter as described elsewhere (Canta et al., 2016 Neurobiol Aging 45:136-148).

[5] = tested on: RPMI-8226 human myeloma xenografts; assay: In vivo BTZ and combination (BTZ and CX-8998) anti-tumor (interference) study, tumor volume; parameters: species or system athymic nude mouse
From the text: as §1, §2

CC(C)C[C@H](NC(=O)[C@H](Cc1ccccc1)NC(=O)c1cnccn1)B(O)O [BTZ, bortezomib, reference compound]
body weight [1]: transient body weight loss during first two weeks of treatment and no weight gain at day 18 and 28 | sciatic NCV ([2]; BTZ vs control at week 5): numerically less than control but the difference was not statistically significant | sciatic NCV ([2]; BTZ vs control at weeks 4 and 8 (p<0.01, p<0.05)): significantly reduced | NCV OF SCIATIC NERVE (8 weeks), Difference in rank sum (Dunn's Multiple Comparison Test) ([2]; CTRL vs BTZ, P < 0.05 *): 22.10 | NCV OF SCIATIC NERVE (5 weeks), Difference in rank sum (Dunn's Multiple Comparison Test) ([2]; CTRL vs BTZ, P > 0.05 ns): 2.250 | TUBULIN POLYMERIZATION, Difference in rank sum (Dunn's Multiple Comparison Test) (β-tubulin; CTRL vs BTZ, P < 0.05 *): −14.74 | β-tubulin polymerization (%) (β-tubulin; BTZ alone vs control, p<0.05): significantly increased | caudal NCV ([3]; BTZ vs control at weeks 4, 5 and 8 (p<0.01, p<0.05, p<0.001)): significantly reduced | NCV OF CAUDAL NERVE (8 weeks), Difference in rank sum (Dunn's Multiple Comparison Test) ([3]; CTRL vs BTZ, P < 0.001 ***): 37.00 | NCV OF CAUDAL NERVE (5 weeks), Difference in rank sum (Dunn's Multiple Comparison Test) ([3]; CTRL vs BTZ, P < 0.05 *): 15.75 | IENF density (number of fibers per millimeter) ([4]; BTZ alone vs control, p<0.001): significantly decreased | IENF DENSITY, Difference in rank sum (Dunn's Multiple Comparison Test) ([4]; CTRL vs BTZ, week 8, P < 0.001 ***): 28.99 | TUMOR GROWTH DAY 18, Difference in rank sum (Dunn's Multiple Comparison Test) ([5]; Vehicle Control vs BTZ, P < 0.001 ***): 13.13 | tumor volume (TV) ([5]; day 18, BTZ alone 1 mg/kg vs vehicle control, p<0.001): significantly reduced TV | tumor volume (TV) trend ([5]; day 18 through day 28, BTZ alone): tended to increase
